Tests used:
[1] = target: T1, human recombinant adrenergic α2B receptor (Homo sapiens, UniProt P18089); test: Adrenergic α2B radioligand binding ([3H]Rauwolscine); settings: 1 h; read-out: Percent Inhibition of ligand binding Adrenergic (1 μM ligand conc.) α2B
T1 construct: expressed in transfected cells; host or cells: CHO-K1 cells
T1 sequence (P18089 1-450): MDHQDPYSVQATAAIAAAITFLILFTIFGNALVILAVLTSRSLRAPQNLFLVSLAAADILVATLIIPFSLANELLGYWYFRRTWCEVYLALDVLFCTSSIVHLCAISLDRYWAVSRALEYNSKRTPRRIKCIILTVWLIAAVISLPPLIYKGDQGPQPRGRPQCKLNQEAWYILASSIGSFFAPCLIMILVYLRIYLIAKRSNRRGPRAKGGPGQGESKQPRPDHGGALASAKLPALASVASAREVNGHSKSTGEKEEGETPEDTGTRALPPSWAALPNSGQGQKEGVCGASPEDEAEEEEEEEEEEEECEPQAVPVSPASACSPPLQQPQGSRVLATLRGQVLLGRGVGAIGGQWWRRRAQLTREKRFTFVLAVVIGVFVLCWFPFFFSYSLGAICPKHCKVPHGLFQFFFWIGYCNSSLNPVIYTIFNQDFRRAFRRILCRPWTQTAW
Procedure: To evaluate in radioligand binding assays the activity of compounds of the invention, human recombinant adrenergic α2B receptor expressed in Chinese hamster ovary (CHO-K1) cells (Uhlen S et al. Eur J. Pharmacol. 343(1):93, 1998) in a modified Tris-HCl buffer (50 mM Tris-HCl, pH 7.4, 12.5 mM MgCl2, 1 mM EDTA, 0.2% BSA) was used. Compounds of the invention were incubated with 2.5 nM [^3H]Rauwolscine for 60 minutes at 25° C. Non-specific binding was estimated in the presence of 10 μM Prozosin. Receptor proteins were filtered and washed, the filters were then counted to determine [^3H]Rauwolscine specifically bound. Compounds were screened at 1 μM or lower, using 1% DMSO as vehicle. Biochemical assay results are presented as the percent inhibition of specific binding in Table 4.

[2] = target: T2, human recombinant histamine H1 receptor (Homo sapiens, UniProt P35367); test: Histamine H1 radioligand binding ([3H]Pyrilamine); settings: 1 μM; read-out: Binding data (Percentage Inhibition) Histamine Binding (1 μM) H1
T2 construct: expressed in transfected cells; host or cells: CHO cells
T2 sequence (P35367 whole entry): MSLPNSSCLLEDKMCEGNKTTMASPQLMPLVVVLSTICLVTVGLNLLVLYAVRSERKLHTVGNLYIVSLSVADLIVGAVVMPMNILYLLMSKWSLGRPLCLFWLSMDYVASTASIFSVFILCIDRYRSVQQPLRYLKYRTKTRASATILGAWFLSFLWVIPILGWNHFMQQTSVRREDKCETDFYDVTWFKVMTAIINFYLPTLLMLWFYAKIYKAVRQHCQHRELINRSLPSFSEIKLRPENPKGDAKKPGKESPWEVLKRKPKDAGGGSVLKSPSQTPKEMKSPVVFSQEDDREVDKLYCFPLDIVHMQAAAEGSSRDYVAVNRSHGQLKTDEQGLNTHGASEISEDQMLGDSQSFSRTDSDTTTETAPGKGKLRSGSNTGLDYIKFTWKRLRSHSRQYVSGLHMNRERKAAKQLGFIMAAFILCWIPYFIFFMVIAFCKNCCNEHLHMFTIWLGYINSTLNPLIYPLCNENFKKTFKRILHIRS
Outline: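 Binding to the human recombinant histamine H1 receptor, expressed in CHO cells, was measured in a modified Tris-HCl buffer (50 mM Tris-HCl, pH 7.4, 2 mM MgCl2, 100 mM NaCl, 250 mM Sucrose). Compounds were incubated with 1.2 nM [3H]Pyrilamine for 180 minutes at 25° C, with 1 μM pyrilamine defining non-specific binding. After filtration and washing, filter counts gave percent inhibition of specific binding.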

[3] = test system: rat central imidazoline I2 receptor; test: Central imidazoline I2 radioligand binding ([3H]Idazoxan); settings: inhibition of specific [3H]Idazoxan binding
Procedure: To evaluate in radioligand binding assays the activity of compounds of the invention, rat central imidazoline I2 receptor obtained from Wistar Rat cerebral cortex (Brown, C. M. et al., Br. J. Pharmacol. 99:803, 1990) in a modified Tris-HCl buffer (50 mM Tris-HCl buffer, pH 7.4, 0.5 mM EDTA) was used. Compounds of the invention were incubated with 2 nM [^3H]Idazoxan for 30 minutes at 25° C. Non-specific binding was estimated in the presence of 1 μM Idazoxan. Receptor proteins were filtered and washed, the filters were then counted to determine [^3H]Idazoxan specifically bound. Compounds were screened at 1 μM or lower, using 1% DMSO as vehicle. Compounds of the invention were tested in this biochemical assay and percent inhibition of specific binding was determined.

Structure (SMILES) | inhibition at 1 µM [1] | inhibition at 1 µM [2] | Binding data (Percentage Inhibition) Imidazoline I2 Central (1 μM) [3]
CN1CCc2c(n(CCc3ccc(F)cc3)c3ccc(Cl)cc23)C1 [Compound 3, 9-(4-fluorophenethyl)-6-chloro-2,3,4,9-tetrahydro-2-methyl-1H-pyrido[3,4-b]indole] | 108% | 83% | 20%
CC1CCN(C(=O)Cn2c3c(c4cc(Cl)ccc42)CCN(C)C3)CC1 [Compound 38, 2-(6-chloro-1,2,3,4-tetrahydro-2-methylpyrido[3,4-b]indol-9-yl)-1-(4-methylpiperidin-1-vyl)ethanone] | 15% | 16% | 33%
Cc1ccc2c(c1)c1c(n2CCc2ccc(C)nc2)CN(C)CC1 [Compound 1, 2,3,4,9-tetrahydro-2,6-dimethyl-9-(2-(6-methylpyridin-3-yl)ethyl)-1H-pyrido[3,4-b]indole] | 99% | 77% | 40%
C#CCn1c2c(c3cc(Cl)ccc31)CCN(C)C2 [Compound 125, 6-chloro-2,3,4,9-tetrahydro-2-methyl-9-(prop-2-yn1)-1H-pyrido[3,4-b]indole] | 67% | 83% | 60%

— patent publication US9260429B2, “Pyrido[3,4-B]indoles and methods of use” (Medivation Technologies, Inc., priority 2008, dated 2016)
